Measurements reported in ChEMBL document CHEMBL3351906, “Bioactive triterpenoid saponins and phenolic compounds against glioma cells” (Bioorg Med Chem Lett, 2014).
One block for each molecule: values may come before it. Calls of active or inactive are those of the source. The rule behind the calls is not given here.

Assays:
C6 [1] = test: Induction of apoptosis in rat C6 cells assessed as nuclear pyknosis at 10 uM after 72 hrs by DAPI staining based fluorescence microscopy; type: functional, cell-based
U-251 [2] = test: Induction of necrosis in human U251 cells at 15 uM after 72 hrs propidium iodide staining based fluorescence microscopy; type: functional, cell-based
C6 [3] = test: Inhibition of cell proliferation of rat C6 cells assessed as cell viability after 72 hrs by sulforhodamine B assay; type: functional, cell-based; conditions: C6, 72 h
U-251 [4] = test: Inhibition of cell proliferation of human U251 cells assessed as cell viability after 72 hrs by sulforhodamine B assay; type: functional, cell-based; conditions: U-251, 72 h
U-251 [5] = test: Induction of apoptosis in human U251 cells assessed as viable cell level at 40 uM after 72 hrs by annexin V-FITC/propidium iodide double staining based flow cytometry (reference value: 91.04%); type: functional
[6] = Inhibition of cell proliferation of human U87MG cells assessed as cell viability after 72 hrs by sulforhodamine B assay; type: functional, cell-based, U-87MG ATCC; conditions: U-87 MG
C6 [7] = test: Induction of necrosis in rat C6 cells at 10 uM after 72 hrs by propidium iodide staining based fluorescence microscopy; type: functional, cell-based
U-251 [8] = test: Inhibition of cell proliferation of human U251 cells assessed as cell viability at 100 uM after 72 hrs by sulforhodamine B assay; type: functional; conditions: U-251, 72 h, read-out: Activity
U-251 [9] = test: Induction of apoptosis in human U251 cells assessed as late apoptotic level at 40 uM after 72 hrs by annexin V-FITC/propidium iodide double staining based flow cytometry (reference value: 4.95%); type: functional
U-251 [10] = test: Induction of apoptosis in human U251 cells assessed as early apoptotic level at 40 uM after 72 hrs by annexin V-FITC/propidium iodide double staining based flow cytometry (reference value: 1.77%); type: functional
U-251 [11] = test: Induction of apoptosis in human U251 cells assessed as necrotic cell level at 40 uM after 72 hrs by annexin V-FITC/propidium iodide double staining based flow cytometry (reference value: 2.24%); type: functional
U-251 [12] = test: Induction of apoptosis in human U251 cells assessed as nuclear pyknosis at 15 uM after 72 hrs by DAPI staining based fluorescence microscopy; type: functional, cell-based
U-251 [13] = test: Induction of apoptosis in human U251 cells assessed as necrotic cell level at 10 uM after 72 hrs by annexin V-FITC/propidium iodide double staining based flow cytometry (reference value: 1.79%); type: functional
C6 [14] = test: Induction of apoptosis in rat C6 cells assessed as nuclear pyknosis at 6 uM after 72 hrs by DAPI staining based fluorescence microscopy; type: functional, cell-based
U-251 [15] = test: Induction of necrosis in human U251 cells at 10 uM after 72 hrs propidium iodide staining based fluorescence microscopy; type: functional, cell-based
C6 [16] = test: Induction of apoptosis in rat C6 cells assessed as viable cell level at 6 uM after 72 hrs by annexin V-FITC/propidium iodide double staining based flow cytometry (reference value: 93.43); type: functional
U-251 [17] = test: Induction of apoptosis in human U251 cells assessed as viable cell level at 10 uM after 72 hrs by annexin V-FITC/propidium iodide double staining based flow cytometry (reference value: 94.49%); type: functional
C6 [18] = test: Induction of apoptosis in rat C6 cells assessed as late apoptotic level at 6 uM after 72 hrs by annexin V-FITC/propidium iodide double staining based flow cytometry (reference value: 3.68%); type: functional
C6 [19] = test: Induction of necrosis in rat C6 cells at 6 uM after 72 hrs by propidium iodide staining based fluorescence microscopy; type: functional, cell-based
C6 [20] = test: Induction of apoptosis in rat C6 cells assessed as early apoptotic level at 6 uM after 72 hrs by annexin V-FITC/propidium iodide double staining based flow cytometry (reference value: 1.67%); type: functional
U-251 [21] = test: Induction of apoptosis in human U251 cells assessed as early apoptotic level at 10 uM after 72 hrs by annexin V-FITC/propidium iodide double staining based flow cytometry (reference value: 0.56%); type: functional
U-251 [22] = test: Induction of apoptosis in human U251 cells assessed as nuclear pyknosis at 10 uM after 72 hrs by DAPI staining based fluorescence microscopy; type: functional, cell-based
U-251 [23] = test: Induction of apoptosis in human U251 cells assessed as late apoptotic level at 10 uM after 72 hrs by annexin V-FITC/propidium iodide double staining based flow cytometry (reference value: 3.16%); type: functional
C6 [24] = test: Induction of apoptosis in rat C6 cells assessed as necrotic cell level at 6 uM after 72 hrs by annexin V-FITC/propidium iodide double staining based flow cytometry (reference value: 1.22%); type: functional

IC50 (U-251 [4]): 15.6 µM
Compound: C/C=C(/C)C(=O)O[C@H]1[C@H](O)[C@]2(COC(C)=O)[C@H](O)C[C@]3(C)C(=CC[C@@H]4[C@@]5(C)CC[C@H](O[C@@H]6O[C@H](C(=O)OC)[C@@H](O[C@@H]7O[C@H](CO)[C@@H](O)[C@H](O)[C@H]7O)[C@H](O)[C@H]6O[C@@H]6O[C@H](CO)[C@@H](O)[C@H](O)[C@H]6O)[C@](C)(CO)[C@@H]5CC[C@]43C)[C@@H]2CC1(C)C
Activity (C6 [1]): Active
Activity (U-251 [2]): Active
IC50 (C6 [3]): 11 µM
Activity (U-251 [5]): 62.1%
IC50 [6]: 8.32 µM
Activity (C6 [7]): Active
viability at 100 µM (U-251 [8]): 22.2%
Activity (U-251 [9]): 26.54%
Activity (U-251 [10]): 7.06%
Activity (U-251 [11]): 4.3%
Activity (U-251 [12]): Active

IC50 (U-251 [4]): 16.9 µM
Compound: C=C[C@@](C)(O)CC/C=C(\C)C(=O)OC[C@H]1O[C@@H](OC(=O)[C@]23CCC(C)(C)C[C@H]2C2=CC[C@@H]4[C@@]5(C)CC[C@H](O[C@@H]6O[C@H](CO[C@@H]7OC[C@H](O)[C@H](O)[C@H]7O[C@@H]7OC[C@@H](O)[C@H](O)[C@H]7O)[C@@H](O)[C@H](O)[C@H]6O)C(C)(C)[C@@H]5CC[C@@]4(C)[C@]2(C)CC3)[C@H](O[C@@H]2O[C@@H](C)[C@H](O[C@@H]3OC[C@@H](O)[C@H](O[C@@H]4OC[C@@H](O)[C@H](O)[C@H]4O)[C@H]3O)[C@@H](O)[C@H]2O)[C@@H](O)[C@@H]1O
Activity (U-251 [13]): 13.62%
Activity (C6 [14]): Active
IC50 (C6 [3]): 7.3 µM
Activity (U-251 [15]): Active
Activity (C6 [16]): 40.15%
Activity (U-251 [17]): 64.13%
IC50 [6]: 14.7 µM
Activity (C6 [18]): 21.37%
Activity (C6 [19]): Active
viability at 100 µM (U-251 [8]): 14.2%
Activity (C6 [20]): 16.73%
Activity (U-251 [21]): 4.12%
Activity (U-251 [22]): Active
Activity (U-251 [23]): 18.13%
Activity (C6 [24]): 21.75%
